Test results from patent US20240025857A1, “NEW CATECHOLAMINE PRODRUGS FOR USE IN THE TREATMENT OF PARKINSON'S DISEASE” (H. Lundbeck A/S, priority 2020, published 2024).
In brackets after ≈: the same amount, converted by molar mass. Where a name gives a salt, the structure may show the parent alone.

Experiments:
[1] = PK experiments in rats: plasma compound (I) after oral dosing of prodrug; conditions: for conversion to compound (I) in vivo: oral dosing, rats, Example 2
Protocol: (§1) The tubes were inverted gently 6-8 times to ensure thorough mixing and then placed in wet ice. The collecting tube was placed in wet ice for up to 30 minutes until centrifugation (3000 G for 10 minutes at 4° C.). Once removed from the wet ice the centrifugation was initiated immediately. Immediately after end of centrifugation the samples were returned to wet ice. Two sub-samples of 130 microL plasma were transferred to each of two appropriately labelled cryo tubes containing 6.5 microL pre-cooled formic acid (20% in water v/v) The tube lid was immediately replaced, and the plasma solution was thoroughly mixed by inverting gently 6-8 times. The plasma samples were placed on water-ice as far as possible and stored frozen at nominally −70° C. within 60 minutes after sampling.
(§2) For experiments relating to compounds (II) and (III), the above protocol was used, with the exception that K3EDTA tubes were prepared with stabilizing aqueous solution consisting of 80 microL 100 mg/mL ascorbic acid and 40 microL inhibitor solution containing 100 mg/mL citric acid, 21 mg/mL D-saccharic acid 1,4 lactone and 29 mg/mL tris-(2-carboxyethyl)phosphine (TCEP).
(§3) Plasma samples were analyzed by solid phase extraction or direct protein precipitation followed by UPLC-MS/MS. MS detection using electrospray in the positive ion mode with monitoring of specific mass-to-charge transitions for compound (I) using internal standards for correcting the response. The concentration-time data was analyzed, using standard software using appropriate noncompartmental techniques to obtain estimates of the derived PK parameters.
(§4) Han Wistar rats were supplied by Charles River Laboratories, Sulzfeld, Germany. An artificial, automatically controlled, light and dark cycle of 12 hours was maintained. The rats received a standard laboratory diet from Brogaarden (Altromin 1324 pellets). The rats had unrestricted access to the diet.
(§5) Han Wistar rats were supplied by Charles River Laboratories, UK. An artificial, automatically controlled, light and dark cycle of 12 hours was maintained. The rats received a standard laboratory diet (Teklad 2014C Diet). The rats had unrestricted access to the diet.

[2] = in man after oral dosing; extensive hepatic first-pass metabolism; cited from earlier work
[3] = Conversion to compound (I) in human liver S9; format: in vitro ADME; conditions: 1 μM, 4 mg/mL protein, 37° C., 0-60 minutes; compared to (Id-iia) and (Id-iib); FIG. 3
Protocol: The compounds (II), (III), (Id-iia), and (Id-iib) were incubated separately at 1 μM with rat and human liver S9 fraction suspended in 50 mM phosphate buffer at pH 7.4 with 5 mM MgCl2, 200 U/mL superoxide dismutase and 1 mM ascorbic acid. The human liver S9 (pool from 50 donors) and the rat liver S9 (from Wistar Han rats, pool of 240) fractions were purchased from SekisuiXenoTech, USA. The protein concentration in the incubation was 4 mg/mL. The incubations were performed in 96-well plates at 37° C. using an automated Hamilton liquid handling system with a total incubation volume of 150 microliter per well. The compounds were each incubated in triplicates in three wells per time point. The liver S9 suspensions were pre-incubated at 37° C. and the reactions started by addition of stock solutions of the test compounds to the incubation wells. The test compounds were dissolved in dimethyl sulfoxide (DMSO) and further diluted in water before spiking the stock solution into the incubation wells. […] Concentrations of compound (I) were determined after solid-phase extraction of the samples followed by LC-MS/MS analysis. The increase in concentration of compound (I) at the different time points was calculated by subtracting the concentration of compound (I) in the sample taken at time 0 from the concentrations of compound (I) in samples taken at the different time points. […]

[4] = format: in vitro ADME, Wistar Han rats; conditions: 1 μM, 4 mg/mL protein, 37° C., 0-60 minutes; FIG. 4
Protocol: The human liver S9 (pool from 50 donors) and the rat liver S9 (from Wistar Han rats, pool of 240) fractions were purchased from SekisuiXenoTech, USA. The protein concentration in the incubation was 4 mg/mL. The incubations were performed in 96-well plates at 37° C. using an automated Hamilton liquid handling system with a total incubation volume of 150 microliter per well. The compounds were each incubated in triplicates in three wells per time point. The liver S9 suspensions were pre-incubated at 37° C. and the reactions started by addition of stock solutions of the test compounds to the incubation wells. The test compounds were dissolved in dimethyl sulfoxide (DMSO) and further diluted in water before spiking the stock solution into the incubation wells. The final DMSO concentration in the incubations was 0.1%. The test compounds were incubated with liver S9 fractions for 0, 5, 10, 15, 30, 45 and 60 minutes. The incubations were terminated by transferring 100 microliter of the incubation samples to a 96-well plate containing 100 microliter of cold (approximately +4° C.) stop reagent containing 2% formic acid, 20 mg/mL ascorbic acid, 10 mg/mL citric acid and 3 mg/mL TCEP (tris(2-carboxyethyl)phosphine). After mixing, the samples were transferred to Nunc 1.0 mL cryo tubes and immediately frozen at −80° C. until analysis. Concentrations of compound (I) were determined after solid-phase extraction of the samples followed by LC-MS/MS analysis. The increase in concentration of compound (I) at the different time points was calculated by subtracting the concentration of compound (I) in the sample taken at time 0 from the concentrations of compound (I) in samples taken at the different time points.
Mass spectrometer (LC-MS/MS) Waters Acquity-Waters Xevo TQ-S. Analytical column Acquity BEH C18 50×2.1 mm, 1.7 micrometer. Mobile phase A: 0.2% formic acid in 20 mM NH4-Formate. Mobile phase B: 0.2% formic acid in acetonitrile. Gradient run from 5% B to 95% B in 3.5 minutes. Flow rate 0.6 mL/min. […]

physchem = format: physicochemical; conditions: aqueous buffer, thermodynamic from solid; 25 mM phosphate buffer pH 6, 24 hours rotation, saturated solution; read-out: Measured solubility at pH 6
Protocol: For compound (III), a sample was prepared with excess compound (III) to establish a saturated solution. 4.2 mg of compound (III) was transferred to a vial and 0.5 mL buffer (25 mM phosphate buffer, NaH2PO4/Na2HPO4, pH 6) was added. The sample was mixed by rotation for 24 hours. pH of the sample was measured at t=0 (prior to rotation) and at t=24 h (after 24 h of rotation). Subsequently, some of the sample was filtered with 0.22 micrometer polyvinylidene difluoride filter, first few drops discarded, and content of dissolved compound (III) was quantified by reverse phased HPLC (C18, 3.5 micrometer, 4.6×150 mm column) with eluent 20 mM ammonium buffer pH 2.4 with methanol, 80:20.
The remaining undissolved material was extracted, and air dried for approximately 20 minutes on a metal plate prior to analysis by X-ray powder diffractogram (XRPD). XRPD diffractograms were obtained on a PANalytical X'Pert PRO X-Ray Diffractometer using CuKa1 radiation (λ=1.5406 Å). The samples were measured in reflection mode in the 2θ-range 3-39.9° using an X'celerator detector.

[5] = male, Han Wistar, rat, in vivo, po
Protocol: as §1, §2, §3, §4, §5

Structure (SMILES): CCCN1CCC[C@@H]2Cc3c(ccc(OC(=O)C(C)(C)C)c3OC(=O)C(C)(C)C)C[C@H]21 [(Ic)]
- plasma concentrations of compound (I) ([1]; oral administration of the prodrug, Wistar rats, in words): extremely low

Structure (SMILES): CCCc1cc2c(s1)CN[C@@H]1CCc3cc(OC(C)=O)c(OC(C)=O)cc3[C@@H]21 [Adrogolide]
- oral bioavailability [2]: ~4%

Structure (SMILES): CCCN1CCC[C@@H]2Cc3c(ccc(OS(N)(=O)=O)c3O)C[C@H]21 [Compound (II), (4aR,10aR)-6-hydroxy-1-propyl-1,2,3,4,4a,5,10,10a-octahydrobenzo[g]quinolin-7-yl sulfamate]
- conversion to compound (I) in human liver S9 fraction [3]: increased conversion to compound (I)
- conversion to compound (I) in rat liver S9 [4]: is converted to compound (I)
- conversion to compound (I) in vivo [1]: converted to compound (I) in vivo

Structure (SMILES): CCCN1CCC[C@@H]2Cc3c(ccc(O)c3OS(N)(=O)=O)C[C@H]21 [Compound (III), (4aR,10aR)-7-hydroxy-1-propyl-1,2,3,4,4a,5,10,10a-octahydrobenzo[g]quinolin-6-yl sulfamate]
- conversion to compound (I) in human liver S9 fraction [3]: increased conversion to compound (I)
- solubility at 24 h (physchem): 890 µg/mL (≈ 2610 µM)
- conversion to compound (I) in rat liver S9 [4]: is converted to compound (I)
- conversion to compound (I) in vivo [1]: converted to compound (I) in vivo

Structure (SMILES): CCCN1CCC[C@@H]2CC3=C(CCCC3=O)C[C@H]21 [Compound (Ia)]
- AUC0-24 [5]: 13.6 ng·h/mL
- Cmax [5]: 3.16 ng/mL
- Tmax ([5]; 0.3 mg/kg): 1.0 h
- Exposure at 24 h ([5]; 24 h): 48 ± 26 pg/mL

Structure (SMILES): CCCN1CCC[C@@H]2Cc3c(ccc(OS(=O)(=O)O)c3O)C[C@H]21 [Compound (Id-iib), (4aR,10aR)-6-hydroxy-1-propyl-1,2,3,4,4a,5,10,10a-octahydrobenzo[g]quinolin-7-yl hydrogen sulfate]
- solubility at 24 h (physchem): 37 µg/mL
- conversion to compound (I) in rat liver S9 [4]: is converted to compound (I)
